The target in data set [1] is T1, human MRGPRX4-83L (Homo sapiens, UniProt Q96LA9).
T1 construct: host or cells: CHO β-arrestin cells
The data set can be described thus: Calcium assay (human MRGPRX4 83L), recombinant astrocytes. Type of data set: cell-based. To be noted: for EC50: calcium mobilization, MRGPRX4-83L, read-out: EC50 ± SEM; for Emax: efficacy based on maximal effect of 1 μM B-16 (set as 100%), read-out: Emax. The gist of the method: (§1)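 Calcium responses were recorded in astrocytes engineered to express the 83L receptor and in LN229 glioblastoma cells that express the 83S form natively. Arrestin recruitment was detected by β-galactosidase complementation in recombinant CHO cells.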
In general terms: Calcium assays in cells follow changes in intracellular calcium, usually with a dye or a luminescent sensor.

Data set [2] deals with T1, human MRGPRX4-83L. Description: β-arrestin assay (CHO β-arrestin ARMS1-ProLink 2 human MRGPRX4 83L). To be noted: for IC50: inhibition of the effect of 2.6 μM B-16; for EC50: β-arrestin recruitment, CHO cells, MRGPRX4-83L, read-out: EC50 ± SEM; for Emax: efficacy based on maximal effect of 100 nM B-16 (set as 100%), read-out: Emax. It counts as cell-based. The gist of the method:
as §1

Another data set deals with MRGPRX4-83S (Homo sapiens, UniProt Q96LA9, L83S). The data set can be described thus: β-arrestin assay (CHO β-arrestin human MRGPRX4-83S). Type of data set: cell-based. More on the design: host or cells: CHO β-arrestin cells. To be noted: for EC50: β-arrestin recruitment, CHO cells, MRGPRX4-83S, read-out: EC50 ± SEM; for Emax: efficacy based on 100 nM B-16 (set as 100%), read-out: Emax. How it is done: For β-arrestin recruitment assays, recombinant Chinese hamster ovary (CHO) cells expressing the human MRGPRX4 were used (DiscoverX/Eurofins) which allowed to measure β-galactosidase complementation upon β-arrestin recruitment. For calcium mobilization assays, recombinant astrocytes expressing MRGPX4-83L, or LN229 glioblastoma cells natively expressing the MRGPRX4-83S, were used.
The assays were performed as previously described for other rhodopsin-like GPCRs (Müller, C.E.; 8-Benzamidochromen-4-one-2-carboxylic acids: potent and selective agonists for the orphan G protein-coupled receptor GPR35. J. Med. Chem. 2013, 56:5182-97; Müller, C.E. Molecular Recognition of Agonists and Antagonists by the Nucleotide-Activated G Protein-Coupled P2Y2 Receptor. J. Med. Chem. 2017, 60:8425-8440).
(In general: Recruitment of arrestin is a read-out of receptor activation apart from second messengers.)

The mark [3] stands for this setting: Table 1, means of 3-4 experiments.

Usually melting point stands for the temperature, or range, at which the solid turns liquid. A word on the IC50: it is the point on the concentration scale where inhibition reaches its midpoint. One may read the EC50 as the concentration giving half of the maximal effect. What is called Emax is the maximal effect, on the per cent scale that the assay sets.

Where two headings read alike, the source gives them in different places.

T1 sequence (Q96LA9 whole entry): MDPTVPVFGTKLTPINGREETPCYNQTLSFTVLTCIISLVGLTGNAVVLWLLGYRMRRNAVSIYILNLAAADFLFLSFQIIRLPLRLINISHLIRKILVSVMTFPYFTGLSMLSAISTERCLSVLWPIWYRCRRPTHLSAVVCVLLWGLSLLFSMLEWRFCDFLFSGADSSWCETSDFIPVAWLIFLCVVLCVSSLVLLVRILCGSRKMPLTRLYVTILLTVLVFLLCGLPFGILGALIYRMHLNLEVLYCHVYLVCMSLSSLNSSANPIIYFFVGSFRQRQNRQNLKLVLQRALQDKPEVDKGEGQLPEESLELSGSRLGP
MRGPRX4-83S, sequence (Q96LA9 whole entry L83S): as the sequence (Q96LA9 whole entry) above, with L83S counted along it

`C#CCn1c(=O)c2[nH]c(CCc3cccc(Br)c3)nc2n(CCCCP(=O)(OCC)OCC)c1=O` [C-3, Diethyl (4-(8-(3-bromophenethyl)-2,6-dioxo-1-(prop-2-yn-1-yl)-1,2,6,7-tetrahydro-3H-purin-3-yl)butyl)phosphonate] registered a melting point of 133 to 135 °C. Also, the IC50 on human MRGPRX4-83L [1] is over 10 µM. Further, the EC50 at human MRGPRX4-83L [1] (Table 1) was over 10 µM. Moreover, the IC50 against human MRGPRX4-83L [2] (Table 1) is over 10 µM. Also, the EC50 on human MRGPRX4-83L [2] (setting [3]) is over 10 µM. The EC50 on MRGPRX4-83S (Table 2) was over 10000 nM.
In turn, `C#CCn1c(=O)c2c(nc(CCc3ccccc3I)n2CC)n(CCCCP(=O)(O)O)c1=O` [B-31, (4-(7-Ethyl-8-(2-iodophenethyl)-2,6-dioxo-1-(prop-2-yn-1-yl)-1,2,6,7-tetrahydro-3H-purin-3-yl)butyl)phosphonic acid] returned a melting point of 202 to 204 °C. Further, on human MRGPRX4-83L [1] (Table 4), the EC50 was found to be 0.000389 ± 9.2e-05 µM and the Emax was 103%. Besides, on human MRGPRX4-83L [2] (Table 4), the Emax amounted to 94% and the EC50 stood at 0.0874 ± 0.0242 µM. On MRGPRX4-83S (Table 3), the Emax was 89% and the EC50 is 0.0937 ± 0.0523 nM.
As to `C#CCn1c(=O)c2[nH]c(CCc3ccccc3OC)nc2n(CCCCC(=O)O)c1=O` [G-1, 5-(8-(2-Methoxyphenethyl)-2,6-dioxo-1-(prop-2-yn-1-yl)-1,2,6,7-tetrahydro-3H-purin-3-yl)pentanoic acid], the melting point lay within 196 to 198 °C. For the same compound, the IC50 at human MRGPRX4-83L [1] was over 10 µM. Further, at human MRGPRX4-83L [1] (Table 1), the EC50 is over 10 µM. The IC50 on human MRGPRX4-83L [2] (Table 1) is over 10 µM. Also, the EC50 at human MRGPRX4-83L [2] (setting [3]) was over 10 µM. The EC50 on MRGPRX4-83S (Table 2) is over 10000 nM.
For `C#CCn1c(=O)c2[nH]c(CCc3ccccc3Br)nc2n(CCCCP(=O)(O)O)c1=O` [B-8, (4-(8-(2-Bromophenethyl)-2,6-dioxo-1-(prop-2-yn-1-yl)-1,2,6,7-tetrahydro-3H-purin-3-yl)butyl)phosphonic acid], the melting point fell in the range of 209 to 212 °C. Besides, at human MRGPRX4-83L [1] (Table 1), the concentration giving a half-maximal response (EC50) amounted to 0.0227 ± 0.0072 µM and the Emax amounted to 114%. The Emax at human MRGPRX4-83L [2] (Table 1) was determined as 98%. The EC50 on human MRGPRX4-83L [2] (setting [3]) was determined as 0.243 ± 0.045 µM. Also, on MRGPRX4-83S (Table 2), the maximum response (Emax) was 143% and the EC50 was determined as 3.15 ± 0.82 nM.
`CCOP(=O)(CCCCn1c(=O)n(CC)c(=O)c2[nH]c(C3CC3c3ccccc3)nc21)OCC` (centres unmarked) [C-9, Diethyl (4-(1-ethyl-2,6-dioxo-8-(2-phenylcyclopropyl)-1,2,6,7-tetrahydro-3H-purin-3-yl)butyl)phosphonate] returned a melting point of 124 to 126 °C. The IC50 at human MRGPRX4-83L [1] is over 10 µM. For the same compound, the EC50 at human MRGPRX4-83L [1] (Table 1) was over 10 µM. Besides, the IC50 against human MRGPRX4-83L [2] (Table 1) was over 10 µM. Besides, the EC50 at human MRGPRX4-83L [2] (setting [3]) is over 10 µM. For the same compound, the half-maximal effective concentration (EC50) at MRGPRX4-83S (Table 2) is over 10000 nM.
Take `C#CCn1c(=O)c2[nH]c(CCc3cccc(C)c3)nc2n(CCCCP(=O)(OCC)OCC)c1=O` [C-4, Diethyl (4-(8-(3-methylphenethyl)-2,6-dioxo-1-(prop-2-yn-1-yl)-1,2,6,7-tetrahydro-3H-purin-3-yl)butyl)phosphonate]: the melting point lay within 111 to 113 °C. Also, at human MRGPRX4-83L [1], the half-maximal inhibitory concentration (IC50) was over 10 µM. Moreover, at human MRGPRX4-83L [1] (Table 1), the EC50 is over 10 µM. At human MRGPRX4-83L [2] (Table 1), this compound registered an IC50 of over 10 µM. The EC50 on human MRGPRX4-83L [2] (setting [3]) is over 10 µM. In addition, at MRGPRX4-83S (Table 2), the EC50 was over 10000 nM.
Compound `C#CCn1c(=O)c2[nH]c(CCc3ccccc3OC)nc2n(CCCCP(=O)(OCC)OCC)c1=O` [C-1, Diethyl (4-(8-(2-Methoxyphenethyl)-2,6-dioxo-1-(prop-2-yn-1-yl)-1,2,6,7-tetrahydro-3H-purin-3-yl)butyl)phosphonate] registered a melting point of 104 to 106 °C. In addition, the IC50 at human MRGPRX4-83L [1] is over 10 µM. The EC50 on human MRGPRX4-83L [1] (Table 1) was over 10 µM. At human MRGPRX4-83L [2] (Table 1), this compound had an IC50 of over 10 µM. In addition, the 50% effective concentration (EC50) at human MRGPRX4-83L [2] (setting [3]) is over 10 µM. In addition, the EC50 on MRGPRX4-83S (Table 2) was over 10000 nM.
`C#CCn1c(=O)c2c(nc(CCc3ccccc3OC)n2C)n(CCCCP(=O)(OCC)OCC)c1=O` [C-2, Diethyl (4-(8-(2-methoxyphenethyl)-7-methyl-2,6-dioxo-1-(prop-2-yn-1-yl)-1,2,6,7-tetrahydro-3H-purin-3-yl)butyl)phosphonate] returned a melting point of 124 to 146 °C. In addition, at human MRGPRX4-83L [1], the IC50 is over 10 µM. Further, the EC50 at human MRGPRX4-83L [1] (Table 1) is over 10 µM. The compound also yielded an IC50 against human MRGPRX4-83L [2] (Table 1) of over 10 µM. The EC50 at human MRGPRX4-83L [2] (setting [3]) is over 10 µM. On MRGPRX4-83S (Table 2), the EC50 was over 10000 nM.
Consider `CCOP(=O)(CCCCn1c(=O)n(CC2CCC2)c(=O)c2[nH]c(CCc3cccc(OC)c3)nc21)OCC` [C-7, Diethyl (4-(1-(cyclobutylmethyl)-8-(3-methoxyphenethyl)-2,6-dioxo-1,2,6,7-tetrahydro-3H-purin-3-yl)butyl)phosphonate], for which the melting point lay within 82 to 84 °C. Moreover, the IC50 on human MRGPRX4-83L [1] is over 10 µM. In addition, the EC50 on human MRGPRX4-83L [1] (Table 1) is over 10 µM. Also, on human MRGPRX4-83L [2] (Table 1), the IC50 was over 10 µM. On human MRGPRX4-83L [2] (setting [3]), the 50% effective concentration (EC50) was over 10 µM. For the same compound, the EC50 at MRGPRX4-83S (Table 2) was over 10000 nM.
`C#CCn1c(=O)c2c(nc(CCc3cccc(C(F)(F)F)c3)n2C)n(CCCCP(=O)(OCC)OCC)c1=O` [C-5, Diethyl (4-(7-methyl-2,6-dioxo-1-(prop-2-yn-1-yl)-8-(3-(trifluoromethyl)phenethyl)-1,2,6,7-tetrahydro-3H-purin-3-yl)butyl)phosphonate]: the melting point lay in the range of 121 to 124 °C. Moreover, the IC50 at human MRGPRX4-83L [1] was over 10 µM. The EC50 on human MRGPRX4-83L [1] (Table 1) was over 10 µM. This compound yielded an IC50 at human MRGPRX4-83L [2] (Table 1) of over 10 µM. Besides, on human MRGPRX4-83L [2] (setting [3]), the EC50 was over 10 µM. In addition, the EC50 on MRGPRX4-83S (Table 2) was over 10000 nM.
Regarding `C#CCn1c(=O)c2c(nc(CCc3ccc(CC)cc3)n2CC2CCCC2)n(CCCCP(=O)(O)O)c1=O` [B-42, (4-(7-(cyclopentylmethyl)-8-(4-ethylphenethyl)-2,6-dioxo-1-(prop-2-yn-1-yl)-1,2,6,7-tetrahydro-3H-purin-3-yl)butyl)phosphonic acid], the melting point was 133 to 135 °C. On MRGPRX4-83S (Table 3), the maximal effect (Emax) came out at 92% and the 50% effective concentration (EC50) was 12.5 ± 1.3 nM.
As to `C#CCn1c(=O)c2[nH]c(CCc3ccccc3OC)nc2n(CCCCP(=O)(O)OCC)c1=O` [D-2, Ethyl hydrogen (4-(8-(2-methoxyphenethyl)-2,6-dioxo-1-(prop-2-yn-1-yl)-1,2,6,7-tetrahydro-3H-purin-3-yl)butyl)phosphonate], the melting point is 172 to 174 °C. At human MRGPRX4-83L [1] (Table 1), the EC50 amounted to 3.32 ± 0.61 µM and the Emax is 103%. Moreover, the Emax on human MRGPRX4-83L [2] (Table 1) came to 122%. For the same compound, the EC50 on human MRGPRX4-83L [2] (setting [3]) was determined as 0.113 ± 0.033 µM. Further, on MRGPRX4-83S (Table 2), the Emax amounted to 141% and the EC50 stood at 0.493 ± 0.104 nM.
`C#CCn1c(=O)c2[nH]c(CCc3ccc(-c4ccccc4)cc3)nc2n(CCCCP(=O)(O)O)c1=O` [B-27, (4-(8-(2-([1,1′-Biphenyl]-4-yl)ethyl)-2,6-dioxo-1-(prop-2-yn-1-yl)-1,2,6,7-tetrahydro-3H-purin-3-yl)butyl)phosphonic acid]: the melting point lay in the range of 212 to 214 °C. On MRGPRX4-83S (Table 3), the Emax amounted to 68% and the EC50 is 36.7 ± 2.8 nM.
Compound `C#CCn1c(=O)c2c(nc(CCc3ccccc3Br)n2C)n(CCCCCCP(=O)(O)O)c1=O` [B-56, (6-(8-(2-Bromophenethyl)-7-methyl-2,6-dioxo-1-(prop-2-yn-1-yl)-1,2,6,7-tetrahydro-3H-purin-3-yl)hexyl)phosphonic acid] displayed a melting point of 221 to 223 °C. Moreover, on human MRGPRX4-83L [1] (Table 4), the EC50 worked out at 0.0578 ± 0.0189 µM and the Emax is 102%. Besides, on human MRGPRX4-83L [2] (Table 4), the Emax was 91% and the EC50 stood at 0.576 ± 0.083 µM.

The values are drawn from US20240002416A1 (Rheinische-Friedrich-Wilhelms-Universität Bonn, priority 2020, published 2024).
